Our source for the ED50 values is patent US10668079B2, “Composition composed of ceftriaxone sodium and sulbactum sodium” (XIANGBEI WELMAN PHARMACEUTICAL CO., LTD., priority 2016, dated 2020).

SMILES strings stand for the structures. Structures can show the parent of a compound that is named as a salt.

What all share (assay): In vivo antibacterial test (animal protection test, septicemia mouse model)
Experiment [1] deals with PP-R (β-lactam-resistant Neisseria gonorrhoeae). The following applies: sc, strain PP-R, ICR mice. The procedure:
(§1) The stability test samples in test example 1 were sampled at 0th month and subjected to in vivo antibacterial test; and the stability test samples were sampled at 30th month again, and subjected to in vivo antibacterial test. The in vivo antibacterial tests were performed according to the following method.
(§2) Test Samples: Compositions I to VIII, Sterile Powder for Injection I, Sterile Powder for Injection II, Sterile Powder for Injection IV, Lyophilized Powder for Injection I, Lyophilized Powder for Injection II, Lyophilized Powder for Injection A, Sterile Powder for Injection A and Sterile Powder for Injection B, all of which were obtained from the test example 1 at 0th and 30th month; and control drugs: ceftriaxone sodium, levofloxacin hydrochloride, azithromycin, doxycycline hydrochloride and spectinomycin hydrochloride, wherein, a batch of the control drugs were purchased at 0th month of the stability test so as to match with the test samples at 0th month, and another batch of control drugs were purchased at 30th month of the stability test so as to match with the test samples at 30th month, and the time when the two batches were purchased was within one month from the date of their production.
(§3) Animals: ICR mice weighed 18-22 g, half male and half female.
(§4) Strains: ATCC700603 (Klebsiella pneumoniae), ATCC43069 (Neisseria gonorrhoeae), Q-R (quinolone-resistant Neisseria gonorrhoeae), T-R (tetracycline-resistant Neisseria gonorrhoeae), PP-R (β-lactam-resistant Neisseria gonorrhoeae), MAC-R (macrolide-resistant Neisseria gonorrhoeae), SPE-R (spectinomycin-resistant Neisseria gonorrhoeae) and QS-R (ceftriaxone-resistant Neisseria gonorrhoeae), wherein, ATCC700603, and ATCC43069 were purchased from ATCC; QS-R was prepared by in vitro inducing Neisseria gonorrhoeae, which was sensitive to ceftriaxone, with a subinhibitory concentration of ceftriaxone, culturing at 36° C., 5% CO2, passaging once every 24 hours, and then transferring to a higher concentration of ceftriaxone on GC medium until the strain was resistant to ceftriaxone; and other strains were clinical isolates.
(§5) Aseptic thoracotomy was performed timely on the mice died of infection, the heart blood or intracavity effusion was taken and evenly coated on corresponding agar plates, and incubated for 18 hours at 37° C. […] The obtained strain was used to infect mice again.
(§6) After infection, the number of dead mice was recorded. The minimum dose causing 100% death of mice was 1 MLD, and was used as the dose in animal protection experiments. The bacterial concentration, which was one log lower than 1 MLD and infected the animals without mortality, was named 0.1 MLD. In experiments, a bacteria concentration of 1 MLD was used as the positive control for the infection experiments; and a bacteria concentration of 0.1 MLD was used as the negative control for the infection. In both positive and negative control groups, only the bacteria were administrated and no antibiotic treatment was provided. The mortality of the positive group should be 70% or more, and the mortality of the negative group should be 30% or less.
(§7) When the administration dosage was investigated first, there may be relatively great differences between the dose concentrations of the groups. When the range of the administration dosage was determined, it may be further investigated by reducing the differences until the suitable administration dosage (that is, for the group administrated with the highest concentration, 70% or more infected animals survived; and for the group administrated with the lowest concentration, no less than 70% of infected animals died) was found.

The test system of experiment [2] is MAC-R (macrolide-resistant Neisseria gonorrhoeae). The following applies: sc, strain MAC-R, ICR mice. As for the experimental part:
as §1, §2, §3, §4, §5, §6, §7

Experiment [3] deals with QS-R (ceftriaxone-resistant Neisseria gonorrhoeae). To be noted: sc, strain QS-R, ICR mice. The procedure:
as §1, §2, §3, §4, §5, §6, §7

For experiment [4], the system named is Q-R (quinolone-resistant Neisseria gonorrhoeae). The following applies: sc, strain Q-R, ICR mice. As for the experimental part: as §1, §2, §3, §4, §5, §6, §7
Experiment [5] concerns ATCC43069 (Neisseria gonorrhoeae). To be noted: ATCC43069, sc, ICR mice. The procedure:
as §1, §2, §3, §4, §5, §6, §7

In experiment [6] the test system is T-R (tetracycline-resistant Neisseria gonorrhoeae). To be noted: sc, strain T-R, ICR mice. As for the experimental part:
as §1, §2, §3, §4, §5, §6, §7

Experiment [7] deals with SPE-R (spectinomycin-resistant Neisseria gonorrhoeae). The following applies: sc, strain SPE-R, ICR mice. The procedure: as §1, §2, §3, §4, §5, §6, §7
The subject of experiment [8] is ATCC700603 (Klebsiella pneumoniae). To be noted: ATCC700603, sc, ICR mice. As for the experimental part:
as §1, §2, §3, §4, §5, §6, §7

Setting [9] is: samples at 0th month of the stability test, subcutaneous immediately and after 6 hours, 7 days observation.
Where [10] appears, read: samples at 30th month of the stability test (control drugs: batch purchased at 30th month), subcutaneous.
The mark [11] stands for this setting: strain ATCC 43069, samples at 0th month of the stability test, subcutaneous immediately and after 6 hours, 7 days observation.
Setting [12] is: strain ATCC 43069, samples at 30th month of the stability test (control drugs: batch purchased at 30th month), subcutaneous.

In the case of `CC[C@H]1OC(=O)[C@H](C)[C@@H](O[C@H]2C[C@@](C)(OC)[C@@H](O)[C@H](C)O2)[C@H](C)[C@@H](O[C@@H]2O[C@H](C)C[C@H](N(C)C)[C@H]2O)[C@](C)(O)C[C@@H](C)CN(C)[C@H](C)[C@@H](O)[C@]1(C)O` [Azithromycin, azithromycin], the ED50 in experiment [1] (setting [9]) worked out at 49 mg/kg; in experiment [1] (setting [10]), 55 mg/kg; in experiment [2] (setting [9]), 487 mg/kg; in experiment [2] (setting [10]), 497 mg/kg; in experiment [3] (setting [9]) it was 63 mg/kg; in experiment [3] (setting [10]), 69 mg/kg. For the same compound, the ED50 in experiment [4] (setting [9]) worked out at 43 mg/kg; in experiment [4] (setting [10]) it was 40 mg/kg; in experiment [5] (setting [11]) it was 24 mg/kg; in experiment [5] (setting [12]) it was 31 mg/kg; in experiment [6] (setting [9]), 62 mg/kg; in experiment [6] (setting [10]), 59 mg/kg. Besides, the values for the ED50 in experiment [7] (setting [9]) and in experiment [7] (setting [10]) were 59 mg/kg and 65 mg/kg, respectively.
In the case of `C[C@H]1c2cccc(O)c2C(=O)C2=C(O)[C@]3(O)C(=O)C(C(N)=O)=C(O)[C@@H](N(C)C)[C@@H]3[C@@H](O)[C@@H]21` [Doxycycline Hydrochloride, doxycycline hydrochloride], the ED50 stood at 52 mg/kg in experiment [1] (setting [9]); 47 mg/kg in experiment [1] (setting [10]); 58 mg/kg in experiment [2] (setting [9]); 62 mg/kg in experiment [2] (setting [10]); 105 mg/kg in experiment [3] (setting [9]); 99 mg/kg in experiment [3] (setting [10]). Moreover, the ED50 in experiment [4] (setting [9]) came out at 55 mg/kg; in experiment [4] (setting [10]) it was 51 mg/kg; in experiment [5] (setting [11]) it was 37 mg/kg; in experiment [5] (setting [12]), 32 mg/kg; in experiment [6] (setting [9]), 456 mg/kg; in experiment [6] (setting [10]) it was 432 mg/kg. For the same compound, the 50% effective dose (ED50) in experiment [7] (setting [9]) is 52 mg/kg; in experiment [7] (setting [10]), 51 mg/kg.
As for `C[C@H]1COc2c(N3CCN(C)CC3)c(F)cc3c(=O)c(C(=O)O)cn1c23` [Levofloxacin Hydrochloride, levofloxacin hydrochloride], the ED50 in experiment [1] (setting [9]) is 37 mg/kg; in experiment [1] (setting [10]) it was 42 mg/kg; in experiment [2] (setting [9]), 36 mg/kg; in experiment [2] (setting [10]), 41 mg/kg; in experiment [3] (setting [9]), 72 mg/kg; in experiment [3] (setting [10]) it was 82 mg/kg. Moreover, the ED50 was found to be 573 mg/kg in experiment [4] (setting [9]); 564 mg/kg in experiment [4] (setting [10]); 25 mg/kg in experiment [5] (setting [11]); 30 mg/kg in experiment [5] (setting [12]); 48 mg/kg in experiment [6] (setting [9]); 43 mg/kg in experiment [6] (setting [10]). The ED50 in experiment [7] (setting [9]) came out at 67 mg/kg; in experiment [7] (setting [10]), 72 mg/kg.
For the compound `CO/N=C(\C(=O)N[C@@H]1C(=O)N2C(C(=O)O)=C(CSc3nc(=O)c(=O)[nH]n3C)CS[C@H]12)c1csc(N)n1` [Ceftriaxone Sodium, ceftriaxone sodium], the ED50 in experiment [1] (setting [9]) came to 208 mg/kg; in experiment [1] (setting [10]), 224 mg/kg; in experiment [2] (setting [9]), 34 mg/kg; in experiment [2] (setting [10]), 37 mg/kg; in experiment [3] (setting [9]) it was 337 mg/kg; in experiment [3] (setting [10]) it was 373 mg/kg. The ED50 in experiment [4] (setting [9]) came to 31 mg/kg; in experiment [4] (setting [10]), 30 mg/kg; in experiment [5] (setting [11]) it was 16 mg/kg; in experiment [5] (setting [12]), 21 mg/kg; in experiment [6] (setting [9]) it was 46 mg/kg; in experiment [6] (setting [10]), 57 mg/kg. Moreover, the ED50 stood at 35 mg/kg in experiment [8] (strain ATCC 700603, samples at 0th month of the stability test, subcutaneous immediately and after 6 hours, 7 days observation); 37 mg/kg in experiment [8] (strain ATCC 700603, samples at 30th month of the stability test (control drugs: batch purchased at 30th month), subcutaneous); 52 mg/kg in experiment [7] (setting [9]); 66 mg/kg in experiment [7] (setting [10]).
`CN[C@@H]1[C@H](O)[C@H](NC)[C@H]2O[C@@]3(O)C(=O)C[C@@H](C)O[C@H]3O[C@@H]2[C@H]1O` [Spectinomycin Hydrochloride, spectinomycin hydrochloride]: the ED50 in experiment [1] (setting [9]) turned out to be 56 mg/kg; in experiment [1] (setting [10]) it was 67 mg/kg; in experiment [2] (setting [9]), 38 mg/kg; in experiment [2] (setting [10]), 42 mg/kg; in experiment [3] (setting [9]) it was 41 mg/kg; in experiment [3] (setting [10]), 56 mg/kg. The ED50 stood at 40 mg/kg in experiment [4] (setting [9]); 42 mg/kg in experiment [4] (setting [10]); 19 mg/kg in experiment [5] (setting [11]); 22 mg/kg in experiment [5] (setting [12]); 61 mg/kg in experiment [6] (setting [9]); 68 mg/kg in experiment [6] (setting [10]). Besides, the ED50 was determined as 621 mg/kg in experiment [7] (setting [9]) and 571 mg/kg in experiment [7] (setting [10]).
